Experiments:
[1] = Acid-dissociation constant relative to tris(trifluoromethylsulfonyl)methane; format: physicochemical; conditions: compared with tris(trifluoromethylsulfonyl)methane
[2] = smaller than that of tris(trifluoromethylsulfonyl)methane; cited from earlier work
[3] = relative to triphenylantimony and triphenylbismuth; cited from earlier work

| Compound | acid-dissociation constant of acids generated upon UV exposure [1] | other results |
| --- | --- | --- |
| N#Cc1[b-]2c(C#N)c(C#N)c(C#N)c(C#N)c2c(C#N)c(C#N)c1C#N.c1ccc([S+](c2ccccc2)c2ccccc2)cc1 [17B, triphenylsulfonium 1,2,3,4,5,6,7,8-octacyanobenzo[a]borinine] | higher than that of tris(trifluoromethylsulfonyl)methane |  |
| N#Cc1[b-]2c(C#N)c(C#N)c(C#N)c(C#N)c2c(C#N)c(C#N)c1C#N.c1ccc([I+]c2ccccc2)cc1 [17D, diphenyliodonium 1,2,3,4,5,6,7,8-octacyanobenzo[a]borinine] | higher than that of tris(trifluoromethylsulfonyl)methane |  |
| N#Cc1[b-]2c(C#N)c(C#N)c(C#N)c(C#N)c2c(C#N)c(C#N)c1C#N.c1ccc([S+]2CCCC2)cc1 [17F, phenylthiolanium 1,2,3,4,5,6,7,8-octacyanobenzo[a]borinine] | higher than that of tris(trifluoromethylsulfonyl)methane |  |
| CC1(C)C2CCC1(CS(=O)(=O)O)C(=O)C2 (stereo not drawn) [camphorsulfonic anions] |  | acid-dissociation constant [2]: about 18 orders of magnitude |
| diphenyliodonium bis(1,2,2-tricyanoethen-1-yl)-(1,1,2,4,5,5-hexacyanopent-1,4-dien-3-yl)borane [17C] | higher than that of tris(trifluoromethylsulfonyl)methane |  |
| p-toluenesulfonate [p-toluenesulfonate anions] |  | acid-dissociation constant [2]: about 18 orders of magnitude |
| phenylthiolanium bis(1,2,2-tricyanoethen-1-yl)-(1,1,2,4,5,5-hexacyanopent-1,4-dien-3-yl)borane [17E] | higher than that of tris(trifluoromethylsulfonyl)methane |  |
| triphenylsulfonium bis(1,2,2-tricyanoethen-1-yl)-(1,1,2,4,5,5-hexacyanopent-1,4-dien-3-yl)borane [17A] | higher than that of tris(trifluoromethylsulfonyl)methane |  |
| triphenyltin |  | mean lethal dose LD50 [3]: one to two orders of magnitude lower |

From patent publication US12306535B2, “Photoacid generator for chemically amplified photoresists for deep ultra violet and extreme ultraviolet lithography” (International Business Machines Corporation, priority 2022, dated 2025)
